Data as given in ChEMBL document CHEMBL5120838, “Synthesis and biological evaluation of geniposide derivatives as inhibitors of hyperuricemia, inflammatory and fibrosis” (Eur J Med Chem, 2022).
The source made the active and inactive calls. No cut-off for these calls is given here.

Experiments:
[1] = molecular target: Xanthine dehydrogenase/oxidase (Bos taurus, UniProt P80457); assay: Inhibition of bovine XOD assessed as inhibition of uric acid formation using xanthine as substrate preincubated with enzyme for 5 mins followed by substrate addition and measured for 30 mins by microplate reader analysis
Xanthine dehydrogenase/oxidase, sequence (P80457 whole entry): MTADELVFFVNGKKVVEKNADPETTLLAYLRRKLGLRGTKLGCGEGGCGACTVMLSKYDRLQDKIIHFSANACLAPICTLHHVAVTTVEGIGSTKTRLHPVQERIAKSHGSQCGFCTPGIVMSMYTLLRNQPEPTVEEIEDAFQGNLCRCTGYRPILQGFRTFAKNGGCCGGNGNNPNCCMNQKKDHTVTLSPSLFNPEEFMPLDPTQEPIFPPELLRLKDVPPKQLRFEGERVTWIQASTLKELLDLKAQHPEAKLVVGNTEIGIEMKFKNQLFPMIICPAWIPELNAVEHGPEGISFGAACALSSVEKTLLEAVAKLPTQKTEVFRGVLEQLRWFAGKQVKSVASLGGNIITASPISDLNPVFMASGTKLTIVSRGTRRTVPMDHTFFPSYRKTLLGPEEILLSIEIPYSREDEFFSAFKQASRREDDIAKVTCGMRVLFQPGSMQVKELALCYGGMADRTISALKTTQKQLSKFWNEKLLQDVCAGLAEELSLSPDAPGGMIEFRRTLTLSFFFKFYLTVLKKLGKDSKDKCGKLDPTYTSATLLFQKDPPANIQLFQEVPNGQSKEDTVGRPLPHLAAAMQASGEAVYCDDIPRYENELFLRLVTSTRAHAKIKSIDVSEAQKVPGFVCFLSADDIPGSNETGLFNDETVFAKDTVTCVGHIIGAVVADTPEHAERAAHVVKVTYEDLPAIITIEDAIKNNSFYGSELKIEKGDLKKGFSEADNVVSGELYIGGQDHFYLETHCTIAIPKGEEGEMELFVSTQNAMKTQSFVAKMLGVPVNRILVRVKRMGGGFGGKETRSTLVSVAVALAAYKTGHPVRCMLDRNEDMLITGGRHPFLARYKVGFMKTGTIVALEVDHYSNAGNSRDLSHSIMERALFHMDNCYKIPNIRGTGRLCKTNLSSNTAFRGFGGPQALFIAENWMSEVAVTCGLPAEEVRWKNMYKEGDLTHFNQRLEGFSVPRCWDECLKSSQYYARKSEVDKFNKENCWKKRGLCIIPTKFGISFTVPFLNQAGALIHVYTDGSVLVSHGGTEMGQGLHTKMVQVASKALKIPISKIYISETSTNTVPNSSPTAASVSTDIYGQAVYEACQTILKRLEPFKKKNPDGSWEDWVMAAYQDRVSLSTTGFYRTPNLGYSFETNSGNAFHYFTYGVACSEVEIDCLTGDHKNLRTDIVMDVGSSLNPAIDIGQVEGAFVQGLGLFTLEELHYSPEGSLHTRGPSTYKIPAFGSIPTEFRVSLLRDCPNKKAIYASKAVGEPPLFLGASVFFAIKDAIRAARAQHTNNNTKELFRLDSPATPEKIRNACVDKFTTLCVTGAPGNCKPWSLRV

Mus musculus [2] = assay: Anti-hyperuricemic activity against adenine and potassium oxonate-induced hyperuricemia Kunming mouse model assessed as reduction in serum creatinine level at 20 mg/kg, po administered via gavage once daily for 2 weeks (reference value: 87.62 +/- 0.67 uM); type: functional
Mus musculus [3] = assay: (§1) Nephroprotective activity against adenine and potassium oxonate-induced hyperuricemia Kunming mouse model assessed as reduction in cytoplasmic vacuolation of renal tubular epithelial cells at 20 mg/kg, po administered via gavage and measured after 21 days by hematoxylin-eosin and Masson trichrome staining based optical microscopic analysis; type: functional, organism-based; conditions: time 21.0 day
Mus musculus [4] = assay: Anti-hyperuricemic activity against adenine and potassium oxonate-induced hyperuricemia Kunming mouse model assessed as blood urea nitrogen level at 20 mg/kg, po administered via gavage once daily for 2 weeks (reference value: 9.88 +/- 1.21 mM); type: functional
Mus musculus [5] = assay: as §1, with “appearance” for “reduction in cytoplasmic vacuolation”, “clear” for “renal”, “structures” for “epithelial cells”; type: functional, organism-based; conditions: time 21.0 day
Mus musculus [6] = assay: as §1, with “in” for “in cytoplasmic vacuolation of”, “tubule dilation” for “tubular epithelial cells”; type: functional, organism-based; conditions: time 21.0 day
Mus musculus [7] = assay: as §1, with “neutrophils infiltrations” for “cytoplasmic vacuolation of renal tubular epithelial cells”; type: functional, organism-based; conditions: time 21.0 day
Mus musculus [8] = assay: as §1, with “connective tissue hyperplasia” for “cytoplasmic vacuolation of renal tubular epithelial cells”; type: functional, organism-based; conditions: time 21.0 day
Mus musculus [9] = assay: as §1, with “tubular-interstitial lesion development” for “cytoplasmic vacuolation of renal tubular epithelial cells”; type: functional, organism-based; conditions: time 21.0 day
Mus musculus [10] = assay: Anti-hyperuricemic activity against adenine and potassium oxonate-induced hyperuricemia Kunming mouse model assessed as reduction in serum uric acid level at 20 mg/kg, po administered via gavage once daily for 2 weeks (reference value: 318.16 +/- 3.31 uM); type: functional

SMILES | IC50 [1] [µM] | other results
CC(=O)OCC1=CC[C@@H]2C(C(=O)Sc3ncc[nH]3)=CO[C@@H](O[C@@H]3O[C@H](COC(C)=O)[C@@H](OC(C)=O)[C@H](OC(C)=O)[C@H]3OC(C)=O)[C@H]12 | 87.5 | 
COC(=O)C1=COC(OC(=O)Nc2cccc(C)c2)[C@@H]2C(COC(=O)Nc3cccc(C)c3)=CC[C@H]12 (stereo partly specified) | 140 | 
CC(=O)OCC1=CC[C@@H]2C(C(=O)SCc3ccccc3)=CO[C@@H](O[C@@H]3O[C@H](COC(C)=O)[C@@H](OC(C)=O)[C@H](OC(C)=O)[C@H]3OC(C)=O)[C@H]12 | 181 | 
CC(=O)OCC1=CC[C@@H]2C(C(=O)Nc3ccc(C#N)cc3)=CO[C@@H](O[C@@H]3O[C@H](COC(C)=O)[C@@H](OC(C)=O)[C@H](OC(C)=O)[C@H]3OC(C)=O)[C@H]12 | 1.86 | Activity (Mus musculus [2]): 89.09 µM; Activity (Mus musculus [3]): Active; Activity (Mus musculus [4]): 7.29 mM; Activity (Mus musculus [5]): Active; Activity (Mus musculus [6]): Active; Activity (Mus musculus [7]): Active; Activity (Mus musculus [8]): Active; Activity (Mus musculus [9]): Active; Activity (Mus musculus [10]): 244.57 µM
CC(=O)OCC1=CC[C@@H]2C(C(=O)Nc3ccc(C(=O)NCC(=O)O)cc3)=CO[C@@H](O[C@@H]3O[C@H](COC(C)=O)[C@@H](OC(C)=O)[C@H](OC(C)=O)[C@H]3OC(C)=O)[C@H]12 | 73.6 | 
CC(=O)OCC1=CC[C@@H]2C(C(=O)Nc3ccccc3-c3ccccc3)=CO[C@@H](O[C@@H]3O[C@H](COC(C)=O)[C@@H](OC(C)=O)[C@H](OC(C)=O)[C@H]3OC(C)=O)[C@H]12 | 75.5 | 
COC(=O)C1=COC(OC(=O)NC(C)C)[C@@H]2C(COC(=O)NC(C)C)=CC[C@H]12 (stereo partly specified) | 80.2 | 
CC(=O)OCC1=CC[C@@H]2C(C(=O)O)=CO[C@@H](O[C@@H]3O[C@H](COC(C)=O)[C@@H](OC(C)=O)[C@H](OC(C)=O)[C@H]3OC(C)=O)[C@H]12 | 35.3 | 
CCCC(=O)OCC1=CC[C@@H]2C(C(=O)O)=CO[C@@H](O[C@@H]3O[C@H](COC(=O)CCC)[C@@H](OC(=O)CCC)[C@H](OC(=O)CCC)[C@H]3OC(=O)CCC)[C@H]12 | 55.7 | 
CC(=O)OCC1=CC[C@@H]2C(C(=O)Nc3nn[nH]n3)=CO[C@@H](O[C@@H]3O[C@H](COC(C)=O)[C@@H](OC(C)=O)[C@H](OC(C)=O)[C@H]3OC(C)=O)[C@H]12 | 63.9 | 
COC(=O)C1=COC(OC(=O)NCCCCl)[C@@H]2C(COC(=O)NCCCCl)=CC[C@H]12 (stereo partly specified) | 48.8 | 
CC(=O)OCC1=CC[C@@H]2C(C(=O)On3cccn3)=CO[C@@H](O[C@@H]3O[C@H](COC(C)=O)[C@@H](OC(C)=O)[C@H](OC(C)=O)[C@H]3OC(C)=O)[C@H]12 | 8.74 | 
CC(C)(C)C(=O)OCC1=CC[C@@H]2C(C(=O)O)=CO[C@@H](O[C@@H]3O[C@H](COC(=O)C(C)(C)C)[C@@H](OC(=O)C(C)(C)C)[C@H](OC(=O)C(C)(C)C)[C@H]3OC(=O)C(C)(C)C)[C@H]12 | 91.2 | 
CC(=O)OCC1=CC[C@@H]2C(C(=O)Nc3cccc4[nH]ccc34)=CO[C@@H](O[C@@H]3O[C@H](COC(C)=O)[C@@H](OC(C)=O)[C@H](OC(C)=O)[C@H]3OC(C)=O)[C@H]12 | 17.5 | 
CC(=O)OCC1=CC[C@@H]2C(C(=O)NCCC#N)=CO[C@@H](O[C@@H]3O[C@H](COC(C)=O)[C@@H](OC(C)=O)[C@H](OC(C)=O)[C@H]3OC(C)=O)[C@H]12 | 15.8 | 
COC(=O)C1=COC(OC(=O)NC2CCCCC2)[C@@H]2C(COC(=O)NC3CCCCC3)=CC[C@H]12 (stereo partly specified) | 281 | 
CCC(=O)OCC1=CC[C@@H]2C(C(=O)O)=CO[C@@H](O[C@@H]3O[C@H](COC(=O)CC)[C@@H](OC(=O)CC)[C@H](OC(=O)CC)[C@H]3OC(=O)CC)[C@H]12 | 48.8 | 
CC(=O)OCC1=CC[C@@H]2C(C(=O)SC3=NCCS3)=CO[C@@H](O[C@@H]3O[C@H](COC(C)=O)[C@@H](OC(C)=O)[C@H](OC(C)=O)[C@H]3OC(C)=O)[C@H]12 | 12.6 | 
CC(=O)OCC1=CC[C@@H]2C(C(=O)Nc3ccc(Br)c4ccccc34)=CO[C@@H](O[C@@H]3O[C@H](COC(C)=O)[C@@H](OC(C)=O)[C@H](OC(C)=O)[C@H]3OC(C)=O)[C@H]12 | 4.14 | Activity (Mus musculus [2]): 57.83 µM; Activity (Mus musculus [3]): Active; Activity (Mus musculus [4]): 6.02 mM; Activity (Mus musculus [5]): Active; Activity (Mus musculus [6]): Active; Activity (Mus musculus [7]): Active; Activity (Mus musculus [8]): Active; Activity (Mus musculus [9]): Active; Activity (Mus musculus [10]): 242.83 µM
CC(=O)OCC1=CC[C@@H]2C(C(=O)Oc3ccncc3)=CO[C@@H](O[C@@H]3O[C@H](COC(C)=O)[C@@H](OC(C)=O)[C@H](OC(C)=O)[C@H]3OC(C)=O)[C@H]12 | 9.15 | 
COC(=O)C1=COC(OC(=O)Nc2ccc(C)cc2)[C@@H]2C(COC(=O)Nc3ccc(C)cc3)=CC[C@H]12 (stereo partly specified) | 73.6 | 
CC(=O)OCC1=CC[C@@H]2C(C(=O)Nc3cccc(F)c3)=CO[C@@H](O[C@@H]3O[C@H](COC(C)=O)[C@@H](OC(C)=O)[C@H](OC(C)=O)[C@H]3OC(C)=O)[C@H]12 | 28.8 | 
CC(=O)OCC1=CC[C@@H]2C(C(=O)NCc3ccncc3)=CO[C@@H](O[C@@H]3O[C@H](COC(C)=O)[C@@H](OC(C)=O)[C@H](OC(C)=O)[C@H]3OC(C)=O)[C@H]12 | 36.6 | 
CC(=O)OCC1=CC[C@@H]2C(C(=O)Nn3cccc3)=CO[C@@H](O[C@@H]3O[C@H](COC(C)=O)[C@@H](OC(C)=O)[C@H](OC(C)=O)[C@H]3OC(C)=O)[C@H]12 | 2.15 | Activity (Mus musculus [2]): 65.57 µM; Activity (Mus musculus [3]): Active; Activity (Mus musculus [4]): 6.42 mM; Activity (Mus musculus [5]): Active; Activity (Mus musculus [6]): Active; Activity (Mus musculus [7]): Active; Activity (Mus musculus [8]): Active; Activity (Mus musculus [9]): Active; Activity (Mus musculus [10]): 263.03 µM
CC(=O)OCC1=CC[C@@H]2C(C(=O)Nc3cncc4ccccc34)=CO[C@@H](O[C@@H]3O[C@H](COC(C)=O)[C@@H](OC(C)=O)[C@H](OC(C)=O)[C@H]3OC(C)=O)[C@H]12 | 18.5 | 
COC(=O)C1=COC(OC(=O)NC(C)(C)C)[C@@H]2C(COC(=O)NC(C)(C)C)=CC[C@H]12 (stereo partly specified) | 104 | 

Continued, in another order:

IC50 [1] [µM] | SMILES | other results
12.8 | COC(=O)C1=COC(OC(=O)Nc2ccc(OC)cc2)[C@@H]2C(COC(=O)Nc3ccc(OC)cc3)=CC[C@H]12 (stereo partly specified) | 
93.4 | COC(=O)C1=COC(O)[C@@H]2C(CO)=CC[C@H]12 (stereo partly specified) | 
30.7 | CC(=O)OCC1=CC[C@@H]2C(C(=O)Oc3cncc4ccccc34)=CO[C@@H](O[C@@H]3O[C@H](COC(C)=O)[C@@H](OC(C)=O)[C@H](OC(C)=O)[C@H]3OC(C)=O)[C@H]12 | 
20.5 | CC(=O)OCC1=CC[C@@H]2C(C(=O)Sc3ccncc3)=CO[C@@H](O[C@@H]3O[C@H](COC(C)=O)[C@@H](OC(C)=O)[C@H](OC(C)=O)[C@H]3OC(C)=O)[C@H]12 | 
32.4 | CC(=O)OCC1=CC[C@@H]2C(C(=O)Nc3ccc(C(=O)O)cc3)=CO[C@@H](O[C@@H]3O[C@H](COC(C)=O)[C@@H](OC(C)=O)[C@H](OC(C)=O)[C@H]3OC(C)=O)[C@H]12 | 
22.8 | CC(=O)OCC1=CC[C@@H]2C(C(=O)Sc3cccs3)=CO[C@@H](O[C@@H]3O[C@H](COC(C)=O)[C@@H](OC(C)=O)[C@H](OC(C)=O)[C@H]3OC(C)=O)[C@H]12 | 
23.9 | COC(=O)C1=COC(OC(=O)Nc2ccccc2Br)[C@@H]2C(COC(=O)Nc3ccccc3Br)=CC[C@H]12 (stereo partly specified) | 
5.15 | CC(=O)OCC1=CC[C@@H]2C(C(=O)Oc3cccc(C#N)c3)=CO[C@@H](O[C@@H]3O[C@H](COC(C)=O)[C@@H](OC(C)=O)[C@H](OC(C)=O)[C@H]3OC(C)=O)[C@H]12 | 
22.8 | CC(=O)OCC1=CC[C@@H]2C(C(=O)Nn3ncc4ccccc43)=CO[C@@H](O[C@@H]3O[C@H](COC(C)=O)[C@@H](OC(C)=O)[C@H](OC(C)=O)[C@H]3OC(C)=O)[C@H]12 | 
62.2 | O=C(O)C1=CO[C@@H](O[C@@H]2O[C@H](CO)[C@@H](O)[C@H](O)[C@H]2O)[C@@H]2C(CO)=CC[C@H]12 [GENIPOSIDIC ACID] | 
165 | COC(=O)C1=CO[C@@H](O[C@@H]2O[C@H](CO)[C@@H](O)[C@H](O)[C@H]2O)[C@H]2[C@@H]1CC1OC12CO (stereo partly specified) | 
61.2 | CCNC(=O)OCC1=CC[C@@H]2C(C(=O)OC)=COC(OC(=O)NCC)[C@H]12 (stereo partly specified) | 
69.7 | CC(C)CC(=O)OCC1=CC[C@@H]2C(C(=O)O)=CO[C@@H](O[C@@H]3O[C@H](COC(=O)CC(C)C)[C@@H](OC(=O)CC(C)C)[C@H](OC(=O)CC(C)C)[C@H]3OC(=O)CC(C)C)[C@H]12 | 
